Laboratory results reported in PMC6304572, “Simultaneous Evaluation of the Influence of Panax ginseng on the Pharmacokinetics of Three Diester Alkaloids after Oral Administration of Aconiti Lateralis Radix in Rats Using UHPLC/QQQ-MS/MS” (Evidence-based Complementary and Alternative Medicine : eCAM, 2018).

Assays:
[1] = Pharmacokinetics of three diester alkaloids in rat plasma after oral Aconiti Lateralis Radix extract, with or without 7-day P. ginseng pretreatment; type: in vivo, Sprague-Dawley rats; conditions: oral Aconiti Lateralis Radix extract 1 g/kg on 8th day
Method: Rats were randomly divided into 4 groups: control group, P. ginseng (low, middle, and high) group. 7 days of oral administration of P. ginseng extract was administered at a dosage of 0.1, 1, 10 g/kg for P. ginseng group (low, middle, and high), respectively, once daily. Distilled water was administered at a dosage of 2 ml/kg for control group, simultaneously. On the 8th day, Aconiti Lateralis Radix extracts (1 g/kg) were orally administered to all groups. 0.5 ml plasma samples were collected in 1.5 ml centrifuge tubes (containing heparin sodium) at 10, 30, 60, 90, 120, 240, 480, 720, 1440, and 2880 min. All plasma samples were centrifuged for 15 min at 4000g. The supernatant was separated to another 1.5 ml centrifuge tubes and stored at -20°C.
Liquid-liquid extraction (ethyl acetate) and protein precipitation (50% acetonitrile plus 50% methanol) methods were compared to determine the best method to prepare the plasma sample. Liquid-liquid extraction method was chosen, due to reproducibly high recovery rates. The details of the extraction are as follows: 10 μL carbamazepine (IS) was added to 90 μL plasma, spiked with 400 μL ethyl acetate and the mixture vortexed for 15 seconds. After centrifugation at 12,000g for 10 min, the supernatant was transferred to another 1.5 mL centrifuge tube and dried under a stream of nitrogen at 37°C. The residue was redissolved in 100 μL 50% acetonitrile and centrifuged at 12,000g for 10 min and filtered through a 0.22 μm Micropore membrane. A 5 μL volume of supernatant was injected into LC-MS system for analysis.
Xevo TQ-S (Waters, USA) was utilized for the analysis of all biological samples. Chromatographic separation was conducted on Waters ACQUITY UPLC HSS T3 1.8 μm column (2.1 mm × 100 mm). Column temperature was 45°C and the flow rate was 0.5ml/min. Room temperature was 20 ± 2°C. Phase A consisted of water and 0.1% formic acid (v/v), and phase B consisted of acetonitrile (ACN) 0.1% formic acid (v/v). Column separation was performed by gradient elution: 0-0.5 min, 10% B; 1-2 min, 90% B; 4 min, 10% B.
Electrospray ionization (ESI) and positive ion V mode were used to determine the samples. The main parameters for mass spectrum were set as follows: capillary voltage: 3.5 kv; sample cone: 60 v; source offset: 50 v; source temperature: 150°C; desolvation temperature: 350°C; cone gas flow: 150 L/h; desolvation gas flow: 650 L/h; injection volume: 5 μL.
The data was acquired and analyzed by XEVO-QT-S (Waters). The pharmacokinetic parameters were analyzed by DAS pharmacokinetic program (Version 2.0). SAS statistical software was used to determine the difference between each group. All data was presented as mean ± SD, and P<0.05 was considered statistically significant.

[2] = Stability of the three alkaloids in rat plasma QC samples (4°C, room temperature, freeze-thaw); type: in vitro ADME; conditions: for Freeze-thaw Accuracy: freeze-thaw three times; for Room temperature stability (24 h) Accuracy: room temperature (about 25°C)
Method: Plasma from rats without any processing was used to evaluate the detection methods. 0.1, 0.25, 0.5, 1, 2.5, 5, 10 ng/ml were chosen to calculate standards curve. 0.1, 0.4, 4, 8 ng/mL were selected as the QC sample (n = 4) with repeated operations used to calculate accuracy and precision of the detection method. The data was acquired after keeping the samples at either +4°C 24 hours or room temperature (about 25°C) for 24 hours as well as using freeze-thaw methods (three times) to evaluate stability. Recovery of the developed methods was calculated by the following formula: recovery = measured value/ theoretical value × 100%.

[3] = P. ginseng-high (10 g/kg oral, 7 days)
[4] = P. ginseng-low (0.1 g/kg oral, 7 days)
[5] = P. ginseng-middle (1 g/kg oral, 7 days)
[6] = control group (distilled water 7 days)

COC[C@]12CN(C)[C@@H]3[C@@H]4[C@H](OC)[C@H]1[C@@]3([C@@H](OC)C[C@H]2O)[C@@H]1C[C@@]2(O)[C@H](OC(=O)c3ccccc3)[C@@H]1[C@]4(OC(C)=O)[C@@H](O)[C@@H]2OC [Mesaconitine]
AUC(0-t) [1, 3]: 126.07 ± 44.93^∗∗ μg/L∗h
AUC(0-∞) [1, 3]: 138.96 ± 55.36^∗∗ μg/L∗h
CLz/F [1, 3]: 81.37 ± 29.62^∗∗ L/h/Kg
Cmax [1, 3]: 8.94 ± 2.33^∗ μg/L
Tmax [1, 3]: 2.20 ± 1.98 h
Vz/F [1, 3]: 1395.19 ± 472.75^∗∗ L/kg
t1/2z [1, 3]: 12.56 ± 4.48 h
AUC(0-t) ([1]; P. ginseng-high (10 g/kg oral, 7 days), listed as mesaconitine): 126.07 ± 44.93 μg/L∗h
AUC(0-t) [1, 4]: 65.53 ± 9.06 μg/L∗h
AUC(0-∞) [1, 4]: 71.36 ± 12.85 μg/L∗h
CLz/F [1, 4]: 144.13 ± 26.77 L/h/kg
Cmax [1, 4]: 4.66 ± 1.03 µg/L
Tmax [1, 4]: 0.89 ± 0.60 h
Vz/F [1, 4]: 2386.47 ± 832.39 L/kg
t1/2z [1, 4]: 12.12 ± 6.11 h
AUC(0-t) [1, 5]: 82.45 ± 18.57^∗ μg/L∗h
AUC(0-∞) [1, 5]: 87.1 ± 21.80^∗ μg/L∗h
CLz/F [1, 5]: 120.75 ± 29.09^∗ L/h/Kg
Cmax [1, 5]: 6.02 ± 1.63 µg/L
Tmax [1, 5]: 1.83 ± 1.21 h
Vz/F [1, 5]: 1745.91 ± 488.37^∗ L/kg
t1/2z [1, 5]: 10.31 ± 3.00 h
AUC(0-t) ([1]; P. ginseng-middle (1 g/kg oral, 7 days), listed as mesaconitine): 82.45 ± 18.57 μg/L∗h
AUC(0-t) [1, 6]: 51.24 ± 21.48 μg/L∗h
AUC(0-∞) [1, 6]: 58.66 ± 27.59 μg/L∗h
CLz/F [1, 6]: 217.47 ± 130.54 L/h/kg
Cmax [1, 6]: 5.48 ± 2.61 µg/L
Tmax [1, 6]: 1.58 ± 1.32 h
Vz/F [1, 6]: 3146.87 ± 1886.84 L/kg
t1/2z [1, 6]: 13.17 ± 10.45 h
4°C temperature stability (24 h) Accuracy ([2]; QC conc. 0.40 ng/mL): 100.28 ± 8.73%
Freeze-thaw Accuracy ([2]; QC conc. 0.40 ng/mL): 95.09 ± 7.31%
Room temperature stability (24 h) Accuracy ([2]; QC conc. 0.40 ng/mL): 96.34 ± 6.95%
4°C temperature stability (24 h) Accuracy ([2]; QC conc. 4.00 ng/mL): 97.02 ± 9.18%
Freeze-thaw Accuracy ([2]; QC conc. 4.00 ng/mL): 100.37 ± 8.92%
Room temperature stability (24 h) Accuracy ([2]; QC conc. 4.00 ng/mL): 93.68 ± 2.77%
4°C temperature stability (24 h) Accuracy ([2]; QC conc. 8.00 ng/mL): 99.43 ± 4.57%
Freeze-thaw Accuracy ([2]; QC conc. 8.00 ng/mL): 99.59 ± 3.35%
Room temperature stability (24 h) Accuracy ([2]; QC conc. 8.00 ng/mL): 100.72 ± 4.78%
